Experimental data published in paper PMC8486139, “A new phenothiazine derivate is active against Clostridioides difficile and shows low cytotoxicity” (PLoS ONE, 2021).
Where two headings read alike, the source gives them in different places.

Experiments:
[1] = system: gastrointestinal microbiota; conditions: mice
Caco-2 cell monolayers [2] = system: Caco-2 cell monolayers
fecal bacterial count = assay: Four-day oral treatment: CFU per gram feces by 16S rRNA qPCR; type: in vivo; conditions: mice; for average CFU/g fecal sample after treatment: four days
Caco-2 cell monolayers [3] = assay: LDH release assay; type: cell-based
Procedure: For analysis of the LDH activity, the samples taken from the apical compartment after the exposure experiment were diluted 5-fold and analyzed in the LDH assay according to manufacturer’s instructions. Briefly, the assay consisted of mixing the diluted samples with different assay reagents followed by incubation at room temperature for 30 min and the absorbance at 492 nm as a measure for LDH activity. A lysate of Caco-2 monolayers (prepared by suspending Caco-2 cell monolayers in purified water) was included as a positive control for maximal response in the assay.

[4] = system: Methicillin resistant Staphylococcus aureus (MRSA); conditions: cited from earlier work
C. difficile ATCC 43255 [5] = assay: Minimum bactericidal concentration (MBC), plating from MIC wells; conditions: C. difficile ATCC 43255, ≥3 log reduction of inoculum
Procedure: Minimum bactericidal concentration (MIC) values were defined as the lowest concentrations of test compounds causing ≥3 log reductions of the initial cell inocula (∼ 10^5 CFU/mL in the final assay). Briefly, 100 μl from each well of the MIC assay (after incubation) were plates on ChromID® plates. After incubation for 24 h, viable counts were enumerated on ChromID® plates. Both the MIC and MBC were conducted with three biological replicates.

MRSA = conditions: cited from earlier work
Caco-2 cell monolayers [6] = assay: MTS/PMS cell proliferation (metabolic activity) assay; type: cell-based
Procedure: The cell proliferation assay (MTS/PMS; [3-(4,5-dimethylthiazol-2-yl)-5-(3-carboxymethoxyphenyl)-2-(4-sulfophenyl)-2H-tetrazolium, inner salt; MTS] and an electron coupling reagent (phenazine methosulfate) PMS) assay was performed by incubating the Caco-2 cell monolayers with 400 μL of a PMS/MTS solution in the apical compartment and 500 μL supplemented HBSS in the basolateral chamber (according to manufacturer’s instructions) for 60 minutes at 37°C and circular rotation (50 rpm). After incubation, 2×100 μL samples were taken from each monolayer and the absorbance at 492 nm in a 96-well plate.

C. difficile ATCC 43255 [7] = assay: Minimal inhibition concentration (MIC) in 96-well microtitre plates; type: cell-based, Clostridioides difficile; conditions: C. difficile ATCC 43255, 24 h anaerobic incubation
Source text: C. difficile ATCC 43255, previously isolated from an abdominal wound, was used to assess the anti-clostridioides activity of JBC 1847. The strain was stored in reinforced clostridial medium (Oxoid, Roskilde, Denmark) in 15% glycerol at -[…] until use and grown anaerobically on ChromID® C. difficile plates (bioMérieux, Ballerup, Denmark).

C. difficile = conditions: previously shown; cited from earlier work

## CC(C)=CCCC(C)CC[N+](C)(C)CCCN1c2ccccc2Sc2ccccc21 (stereo not shown) [JBC 1847]
NMRI female mice; mice, oral
  dose tolerated without any clinical signs of discomfort: up to 100 mg/kg bw
NMRI female mice; mouse, in vivo, 25 mg/kg
  clinical score of discomfort: 1
NMRI female mice; mouse, in vivo, 100 mg/kg
  clinical score of discomfort: 0
NMRI female mice; mouse, in vivo, po, 100 mg/kg
  tolerance of two doses: tolerated well
[1]; especially small intestine (Fig 5)
  tendency in Lactobacillus spp abundance: concentration-depended increase
[1]; exposure trial
  consistency of the fecal material: No changes
Caco-2 cell monolayers [2]; concentrations up to seven times MIC
  effect on TEER: did not affect the TEER negatively
Caco-2 cell monolayers [2]; concentrations up to seven times the minimal bactericidal concentration
  cytotoxicity in Caco-2 cell-line assays: indication of toxicity was not observed
Fecal bacterial count; 20 mg/kg bw
  average CFU/g fecal sample after treatment: 4.4 ×10^9 CFU/g
Fecal bacterial count; 100 mg/kg bw
  average CFU/g fecal sample after treatment: 6.8 × 10^9 CFU/g
Fecal bacterial count; p = 0.51
  change in CFU/g fecal sample after treatment: no significant changes
Caco-2 cell monolayers [3]; 29 μg/mL (50 μM)
  LDH release compared to buffer control: significantly higher
Caco-2 cell monolayers [3]; 29 μg/mL (50 μM), listed as JBC1 8473
  LDH release compared to buffer control: statistically significant increase
Caco-2 cell monolayers [3]; 58.1 μg/ml in Fig 3
  LDH release compared to buffer control: significantly higher
Caco-2 cell monolayers [3]; 58.1 μg/ml in Fig 3, listed as JBC1 8473
  LDH release compared to buffer control: statistically significant increase
[4]
  MIC against MRSA compared to the mother compound, promazine: lower the minimal inhibition concentration (MIC) remarkably
C. difficile ATCC 43255 [5]
  MBC: 4 µg/mL
MRSA
  bacterial load of MRSA in wound model: highly effective in decreasing the bacterial load
Caco-2 cell monolayers [6]; 29 μg/mL
  MTS/PMS response vs buffer controls: not significantly reduced
Caco-2 cell monolayers [6]; 58.1 μg/mL (100 μM)
  MTS/PMS response (metabolic activity) vs buffer control: statistically significant reduction
C. difficile ATCC 43255 [7]
  MIC: 4 µg/mL

## CSc1ccc2c(c1)N(CCC1CCCCN1C)c1ccccc1S2 (stereo not shown) [Thioridazine]
C. difficile
  antimicrobial activity against C. difficile: antimicrobial activity
